# Measured values from patent US6706740B2, “Fungicidal heterocyclic aromatic amides and their compositions, methods of use and preparation” (Dow AgroSciences LLC, priority 1999, dated 2004).
# Tested on: Septoria tritici—SEPTTR
# Assay: Leaf Blotch of Wheat, in vivo whole plant, 24 Hour Protectant
# Details: 100 ppm spray, wheat, 24 hour protectant, % control of fungal infection vs untreated plants
row,Structure (SMILES),SEPTTR in vivo 1 Day Protectant
1,COCCC(=O)Oc1c(OC)ccnc1C(=O)N[C@H]1COC(=O)[C@H](Cc2ccccc2)[C@@H](OC(=O)C(C)(C)C)[C@H](C)OC1=O [Compound 703],+ +

# Same assay, conditions: Zymoseptoria tritici, 24 h, 100 ppm spray, 24 hour protectant, wheat; control of fungal infection vs untreated plants; read-out: SEPTTR in vivo 1 Day Protectant
row,Structure (SMILES),pest or weed control at 100 ppm [%]
1,O=C(NCc1cccc2ccccc12)c1ncccc1O [Compound 228],< 25
2,O=C(Nc1ccc(Oc2ccc(C(F)(F)F)cc2)cc1)c1ncccc1O [Compound 217],< 25

# Tested on: Phytophthora infestans (PHYTIN)
# Assay: microbe, parasite or virus in culture
# Assay type: cell-based
# Details: Phytophthora infestans, read-out: PHYTIN in vitro Growth Inhibition
row,Structure (SMILES),inhibition at 25 ppm [%]
1,COCCC(=O)Oc1c(OC)ccnc1C(=O)N[C@H]1COC(=O)[C@H](Cc2ccccc2)[C@@H](OC(=O)C(C)(C)C)[C@H](C)OC1=O [Compound 703],< 80
2,O=C(NCc1cccc2ccccc12)c1ncccc1O [Compound 228],< 80
3,O=C(Nc1ccc(Oc2ccc(C(F)(F)F)cc2)cc1)c1ncccc1O [Compound 217],< 80

# Tested on: Puccinia recondita—PUCCRT
# Assay: Brown Rust of Wheat, in vivo whole plant, 24 Hour Protectant
# Details: 100 ppm spray, wheat, 24 hour protectant, % control of fungal infection vs untreated plants
row,Structure (SMILES),PUCCRT in vivo 1 Day Protectant
1,COCCC(=O)Oc1c(OC)ccnc1C(=O)N[C@H]1COC(=O)[C@H](Cc2ccccc2)[C@@H](OC(=O)C(C)(C)C)[C@H](C)OC1=O [Compound 703],+ +

# Same assay, conditions: Puccinia; 100 ppm spray, 24 hour protectant, wheat; control of fungal infection vs untreated plants; read-out: PUCCRT in vivo 1 Day Protectant
row,Structure (SMILES),pest or weed control at 100 ppm [%]
1,O=C(NCc1cccc2ccccc12)c1ncccc1O [Compound 228],< 25
2,O=C(Nc1ccc(Oc2ccc(C(F)(F)F)cc2)cc1)c1ncccc1O [Compound 217],< 25

# Tested on: Mycosphaerella graminicola (Septoria tritici—SEPTTR)
# Assay: In vitro fungal growth inhibition, Mycosphaerella graminicola (SEPTTR)
# Assay type: cell-based
# Details: Zymoseptoria tritici; 25 ppm in growth medium; read-out: SEPTTR in vitro Growth Inhibition
row,Structure (SMILES),inhibition at 25 ppm [%]
1,COCCC(=O)Oc1c(OC)ccnc1C(=O)N[C@H]1COC(=O)[C@H](Cc2ccccc2)[C@@H](OC(=O)C(C)(C)C)[C@H](C)OC1=O [Compound 703],< 80
2,O=C(NCc1cccc2ccccc12)c1ncccc1O [Compound 228],< 80
3,O=C(Nc1ccc(Oc2ccc(C(F)(F)F)cc2)cc1)c1ncccc1O [Compound 217],< 80

# Tested on: Phytophthora infestans—PHYTIN
# Assay: whole plant or invertebrate
# Assay type: in vivo
# Details: Phytophthora, in Solanum lycopersicum, 24 h, read-out: PHYTIN in vivo 1 Day Protectant
row,Structure (SMILES),pest or weed control at 100 ppm [%]
1,COCCC(=O)Oc1c(OC)ccnc1C(=O)N[C@H]1COC(=O)[C@H](Cc2ccccc2)[C@@H](OC(=O)C(C)(C)C)[C@H](C)OC1=O [Compound 703],< 25
2,O=C(NCc1cccc2ccccc12)c1ncccc1O [Compound 228],25 to 74
3,O=C(Nc1ccc(Oc2ccc(C(F)(F)F)cc2)cc1)c1ncccc1O [Compound 217],< 25

# Tested on: Stagonospora nodorum (Leptosphaeria nodorum—LEPTNO)
# Assay: In vitro fungal growth inhibition, Stagonospora nodorum (LEPTNO)
# Assay type: cell-based
# Details: Leptosphaeria; 25 ppm in growth medium; read-out: LEPTNO in vitro Growth Inhibition
row,Structure (SMILES),inhibition at 25 ppm [%]
1,COCCC(=O)Oc1c(OC)ccnc1C(=O)N[C@H]1COC(=O)[C@H](Cc2ccccc2)[C@@H](OC(=O)C(C)(C)C)[C@H](C)OC1=O [Compound 703],> 80
2,O=C(NCc1cccc2ccccc12)c1ncccc1O [Compound 228],< 80
3,O=C(Nc1ccc(Oc2ccc(C(F)(F)F)cc2)cc1)c1ncccc1O [Compound 217],< 80

# Tested on: Leptosphaeria nodorum—LEPTNO
# Assay: Glume Blotch of Wheat, in vivo whole plant, 24 Hour Protectant
# Details: 100 ppm spray, wheat, 24 hour protectant, % control of fungal infection vs untreated plants
row,Structure (SMILES),LEPTNO in vivo 1 Day Protectant
1,COCCC(=O)Oc1c(OC)ccnc1C(=O)N[C@H]1COC(=O)[C@H](Cc2ccccc2)[C@@H](OC(=O)C(C)(C)C)[C@H](C)OC1=O [Compound 703],+ +

# Same assay, conditions: Leptosphaeria; 100 ppm spray, 24 hour protectant, wheat; control of fungal infection vs untreated plants; read-out: LEPTNO in vivo 1 Day Protectant
row,Structure (SMILES),pest or weed control at 100 ppm [%]
1,O=C(NCc1cccc2ccccc12)c1ncccc1O [Compound 228],< 25
2,O=C(Nc1ccc(Oc2ccc(C(F)(F)F)cc2)cc1)c1ncccc1O [Compound 217],< 25

# Tested on: Ustilago maydis (USTIMA)
# Assay: microbe, parasite or virus in culture
# Assay type: cell-based
# Details: Mycosarcoma maydis, read-out: USTIMA in vitro Growth Inhibition
row,Structure (SMILES),inhibition at 25 ppm [%]
1,COCCC(=O)Oc1c(OC)ccnc1C(=O)N[C@H]1COC(=O)[C@H](Cc2ccccc2)[C@@H](OC(=O)C(C)(C)C)[C@H](C)OC1=O [Compound 703],< 80
2,O=C(NCc1cccc2ccccc12)c1ncccc1O [Compound 228],< 80
3,O=C(Nc1ccc(Oc2ccc(C(F)(F)F)cc2)cc1)c1ncccc1O [Compound 217],< 80

# Tested on: Erysiphe graminis—ERYSGT
# Assay: Powdery Mildew of Wheat, in vivo whole plant, 24 Hour Protectant
# Details: 100 ppm spray, wheat, 24 hour protectant, % control of fungal infection vs untreated plants
row,Structure (SMILES),ERYSGT in vivo 1 Day Protectant
1,COCCC(=O)Oc1c(OC)ccnc1C(=O)N[C@H]1COC(=O)[C@H](Cc2ccccc2)[C@@H](OC(=O)C(C)(C)C)[C@H](C)OC1=O [Compound 703],+ +

# Same assay, conditions: Erysiphe; 100 ppm spray, 24 hour protectant, wheat; control of fungal infection vs untreated plants; read-out: ERYSGT in vivo 1 Day Protectant
row,Structure (SMILES),pest or weed control at 100 ppm [%]
1,O=C(NCc1cccc2ccccc12)c1ncccc1O [Compound 228],< 25
2,O=C(Nc1ccc(Oc2ccc(C(F)(F)F)cc2)cc1)c1ncccc1O [Compound 217],25 to 74

# Tested on: Rhizoctonia solani (RHIZSO)
# Assay: microbe, parasite or virus in culture
# Assay type: cell-based
# Details: Rhizoctonia solani, read-out: RHIZSO in vitro Growth Inhibition
row,Structure (SMILES),inhibition at 25 ppm [%]
1,COCCC(=O)Oc1c(OC)ccnc1C(=O)N[C@H]1COC(=O)[C@H](Cc2ccccc2)[C@@H](OC(=O)C(C)(C)C)[C@H](C)OC1=O [Compound 703],< 80
2,O=C(NCc1cccc2ccccc12)c1ncccc1O [Compound 228],< 80
3,O=C(Nc1ccc(Oc2ccc(C(F)(F)F)cc2)cc1)c1ncccc1O [Compound 217],< 80

# Tested on: not given
# Assay: not given
# Details: not given
row,Structure (SMILES),melting point [°C]
1,COCCC(=O)Oc1c(OC)ccnc1C(=O)N[C@H]1COC(=O)[C@H](Cc2ccccc2)[C@@H](OC(=O)C(C)(C)C)[C@H](C)OC1=O [Compound 703],144 to 145
2,O=C(NCc1cccc2ccccc12)c1ncccc1O [Compound 228],106 to 109
3,O=C(Nc1ccc(Oc2ccc(C(F)(F)F)cc2)cc1)c1ncccc1O [Compound 217],131 to 133

# Tested on: Magnaporthe grisea (Pyricularia oryzae—PYRIOR)
# Assay: microbe, parasite or virus in culture
# Assay type: cell-based
# Details: Pyricularia oryzae, read-out: PYRIOR in vitro Growth Inhibition
row,Structure (SMILES),inhibition at 25 ppm [%]
1,COCCC(=O)Oc1c(OC)ccnc1C(=O)N[C@H]1COC(=O)[C@H](Cc2ccccc2)[C@@H](OC(=O)C(C)(C)C)[C@H](C)OC1=O [Compound 703],< 80
2,O=C(NCc1cccc2ccccc12)c1ncccc1O [Compound 228],< 80
3,O=C(Nc1ccc(Oc2ccc(C(F)(F)F)cc2)cc1)c1ncccc1O [Compound 217],< 80
